ChEMBL document CHEMBL4680194, “Synthesis and biological evaluation of 1,2,4-triazole derivatives as potential neuroprotectant against ischemic brain injury” (Eur J Med Chem, 2020)
The source made the active and inactive calls. The rule behind the calls is not given here.

Legend:
[1] = Tmax in Sprague-Dawley rat at 2 mg/kg, iv measured upto 24 hrs by LC-MS/MS analysis; assay type: ADME, organism-based; conditions: in vivo
[2] = system: PC-12; experiment: Cytoprotective activity against SNP-induced cell death in rat PC-12 cells assessed as increase in cell viability incubated for 1 hr followed by SNP stimulation and measured after 24 hrs by LDH assay; assay type: functional, cell-based; conditions: time 25.0 hrs
[3] = Toxicity in […] assessed as body weight at 400 mg/kg, ip measured on day 7 (reference value: 24.4 to 28.4 g); assay type: organism-based; conditions: in vivo, 168 h, time 7 day
[4] = biological target: T1, Nuclear factor erythroid 2-related factor 2 (Rattus norvegicus) (UniProt O54968); experiment: Induction of Nrf2 nuclear translocation in rat PC-12 cells assessed as H2O2-induced GSH-px level incubated for 1 hr followed by H2O2 stimulation and measured after 5 hrs; assay type: cell-based; conditions: dose 2.5-10 µM, time 6.0 hrs
T1 sequence (whole entry): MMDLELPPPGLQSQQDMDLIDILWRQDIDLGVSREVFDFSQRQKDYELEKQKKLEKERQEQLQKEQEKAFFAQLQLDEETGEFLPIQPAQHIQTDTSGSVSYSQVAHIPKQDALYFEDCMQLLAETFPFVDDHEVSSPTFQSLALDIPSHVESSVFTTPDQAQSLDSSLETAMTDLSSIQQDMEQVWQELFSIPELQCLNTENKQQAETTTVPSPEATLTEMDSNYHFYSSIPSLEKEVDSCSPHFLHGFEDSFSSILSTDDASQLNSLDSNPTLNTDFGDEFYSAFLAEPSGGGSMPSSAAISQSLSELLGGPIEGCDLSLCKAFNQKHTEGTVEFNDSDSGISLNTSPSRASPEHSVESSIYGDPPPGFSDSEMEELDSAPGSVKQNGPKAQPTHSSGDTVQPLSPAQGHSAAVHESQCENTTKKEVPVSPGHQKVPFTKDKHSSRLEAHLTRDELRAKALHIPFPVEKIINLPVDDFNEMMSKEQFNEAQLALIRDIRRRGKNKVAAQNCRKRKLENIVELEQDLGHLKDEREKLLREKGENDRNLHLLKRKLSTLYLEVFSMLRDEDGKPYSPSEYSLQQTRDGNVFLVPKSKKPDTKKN

[5] = biological target: T1, Nuclear factor erythroid 2-related factor 2 (Rattus norvegicus); experiment: Induction of Nrf2 nuclear translocation in rat PC-12 cells assessed as SNP-induced GSH-px level at 10 uM incubated for 1 hr followed by SNP stimulation and measured after 24 hrs (reference value: 37.70 +/- 2.88 mU/mg); assay type: cell-based; conditions: time 25.0 hrs
[6] = system: PC-12; experiment: Antioxidant activity in rat PC-12 cells assessed as reduction in SNP-induced ROS level incubated for 1 hr followed by SNP stimulation and measured after 24 hrs by DCFH-DA staining based fluorescence microscopy; assay type: functional, cell-based; conditions: dose 2.5-10 µM, time 25.0 hrs
[7] = system: Rattus norvegicus; experiment: Neuroprotective activity in Sprague-Dawley rat model of middle cerebral artery occlusion-induced ischemic injury assessed as infarction volume at 30 mg/kg, ip administered TID and measured after 6 hrs by TTC staining based assay (reference value: 28.67 +/- 2.90 %); assay type: functional
[8] = system: PC-12; experiment: Inhibition of H2O2-induced mitochondrial membrane potential loss in rat PC-12 cells assessed as increase in red fluoresence at 2.5 to 10 uM incubated for 1 hr followed by H2O2 stimulation and measured after 5 hrs by JC-1 staining based fluorescence microscopy; assay type: functional, cell-based; conditions: dose 2.5-10 µM, time 6.0 hrs
[9] = Clearance in Sprague-Dawley rat at 20 mg/kg, po measured upto 24 hrs by LC-MS/MS analysis; assay type: ADME, organism-based; conditions: in vivo
[10] = system: PC-12; experiment: Cytoprotective activity against SNP-induced cell death in rat PC12 cells assessed as increase in cell viability at 10 uM incubated for 1 hr followed by SNP stimulation and measured after 24 hrs in presence of LY294002 by MTT assay; assay type: functional, cell-based; conditions: time 25.0 hrs
[11] = system: Rattus norvegicus; experiment: Neuroprotective activity in Sprague-Dawley rat model of middle cerebral artery occlusion-induced ischemic injury assessed as increase in MDA level at 3 to 30 mg/kg, ip administered TID and measured after 24 hrs by ELISA; assay type: functional, organism-based; conditions: dose 3-30 mg/kg
[12] = biological target: T1, Nuclear factor erythroid 2-related factor 2 (Rattus norvegicus); experiment: Induction of Nrf2 nuclear translocation in rat PC-12 cells assessed as H2O2-induced SOD level at 5 uM incubated for 1 hr followed by H2O2 stimulation and measured after 5 hrs (reference value: 29.69 +/- 1.65 U/mg); assay type: cell-based; conditions: time 6.0 hrs
[13] = MRT in Sprague-Dawley rat at 2 mg/kg, iv measured upto 24 hrs by LC-MS/MS analysis; assay type: ADME, organism-based; conditions: in vivo
[14] = system: PC-12; experiment: Inhibition of SNP-induced apoptosis in rat PC-12 cells assessed as effect on cell morphology incubated for 1 hr followed by SNP stimulation and measured after 24 hrs by Hoechst 33258 staining based fluorescence microscopy; assay type: functional; conditions: dose 2.5-10 µM, time 25.0 hrs
[15] = biological target: T1, Nuclear factor erythroid 2-related factor 2 (Rattus norvegicus); experiment: Induction of Nrf2 nuclear translocation in rat PC-12 cells assessed as SNP-induced SOD level incubated for 1 hr followed by SNP stimulation and measured after 24 hrs; assay type: cell-based; conditions: dose 2.5-10 µM, time 25.0 hrs
[16] = Cmax in Sprague-Dawley rat at 20 mg/kg, po measured upto 24 hrs by LC-MS/MS analysis; assay type: ADME, organism-based; parameters: route oral, dose 20 mg/kg, time <=24; conditions: in vivo
[17] = system: Rattus norvegicus; experiment: Neuroprotective activity in Sprague-Dawley rat model of middle cerebral artery occlusion-induced ischemic injury assessed as infarction volume at 10 mg/kg, ip administered TID and measured after 6 hrs by TTC staining based assay (reference value: 28.67 +/- 2.90 %); assay type: functional
[18] = system: PC-12; experiment: Inhibition of H2O2-induced apoptosis in rat PC-12 cells assessed as reduction in condensed nuclei incubated for 1 hr followed by H2O2 stimulation and measured after 5 hrs by Hoechst 33258 staining based fluorescence microscopy; assay type: functional, cell-based; conditions: dose 2.5-10 µM, time 6.0 hrs
[19] = system: Rattus norvegicus; experiment: Neuroprotective activity in Sprague-Dawley rat model of middle cerebral artery occlusion-induced ischemic injury assessed as decrease in TNF-alpha level at 3 to 30 mg/kg, ip administered TID and measured after 24 hrs by ELISA; assay type: functional, organism-based; conditions: dose 3-30 mg/kg
[20] = system: Rattus norvegicus; experiment: Neuroprotective activity in Sprague-Dawley rat model of middle cerebral artery occlusion-induced ischemic injury assessed as increase in SOD level at 3 to 30 mg/kg, ip administered TID and measured after 24 hrs by ELISA; assay type: functional, organism-based; conditions: dose 3-30 mg/kg
[21] = system: PC-12; experiment: Inhibition of SNP-induced apoptosis in rat PC-12 cells assessed as reduction in condensed nuclei incubated for 1 hr followed by SNP stimulation and measured after 24 hrs by Hoechst 33258 staining based fluorescence microscopy; assay type: functional, cell-based; conditions: dose 2.5-10 µM, time 25.0 hrs
[22] = Oral bioavailability in Sprague-Dawley rat at 20 mg/kg measured upto 24 hrs by LC-MS/MS analysis; assay type: ADME, organism-based; conditions: in vivo
[23] = biological target: T1, Nuclear factor erythroid 2-related factor 2 (Rattus norvegicus); experiment: Induction of Nrf2 nuclear translocation in rat PC-12 cells assessed as H2O2-induced SOD level at 10 uM incubated for 1 hr followed by H2O2 stimulation and measured after 5 hrs (reference value: 29.69 +/- 1.65 U/mg); assay type: cell-based; conditions: time 6.0 hrs
[24] = Cmax in Sprague-Dawley rat at 2 mg/kg, iv measured upto 24 hrs by LC-MS/MS analysis; assay type: ADME, organism-based; parameters: route intravenous, dose 2 mg/kg, time <=24; conditions: in vivo
[25] = AUC (0 to infinity) in Sprague-Dawley rat at 2 mg/kg, iv measured upto 24 hrs by LC-MS/MS analysis; assay type: ADME, organism-based; parameters: route intravenous, dose 2 mg/kg, time <=24; conditions: in vivo
[26] = Tmax in Sprague-Dawley rat at 20 mg/kg, po measured upto 24 hrs by LC-MS/MS analysis; assay type: ADME, organism-based; conditions: in vivo

With `COc1ccc(-c2nc(-c3ccccc3O)n(-c3ccc(S(N)(=O)=O)cc3)n2)c(O)c1` the Tmax [1] was 4.98 min, the Activity [2] was “Dose-dependent effect” and the Activity [3] was 25.7 g. The Activity [4] was “Dose-dependent effect”, the Activity [5] was 52.8 mU/mg and the inhibition [6] was “Dose-dependent effect”. For the same compound, the Activity [7] was 18.06%, the inhibition [8] was “Active” and the CL/F [9] was 23.3 mL/min/kg. For the same compound, the Activity [10] was “inactive”, the Activity [11] was “Active” and the Activity [12] was 38.9 U/mg. For the same compound, the MRT [13] was 2.37 h, the inhibition [14] was “Dose-dependent effect” and the Activity [15] was “Dose-dependent effect”. The Cmax [16] was 2030 ng/mL, the Activity [17] was 12.59% and the inhibition [18] was “Dose-dependent effect”. The Activity [19] was “Active”, the Activity [20] was “Active” and the inhibition [21] was “Dose-dependent effect”. It also gave a bioavailability [22] of 60.8%, an Activity [23] of 41.2 U/mg and a Cmax [24] of 2750 ng/mL. For the same compound, the AUC(0-inf) [25] was 2330 ng·h/mL and the Tmax [26] was 2 h.
